Residues, ends and D or L forms follow the SMILES beside them. *: point of attachment. Cbz = O=C(OCc1ccccc1)*; Boc = CC(C)(C)OC(=O)*
Assays:
Nav1.6 C-tail = target: T1, Nav1.6 C-tail (Homo sapiens, UniProt Q9UQD0); assay: Surface plasmon resonance spectroscopy, immobilized Nav1.6 C-tail; type: binding; settings: SPR, 25° C., 10-200 μM
T1 construct: FGF14WT and Nav1.6 C-tail were immobilized; made in house
Protocol: Surface Plasmon Resonance Spectroscopy. SPR experiments were performed on a Biacore T100 instrument (Biacore GE), and the interaction between FGF14 to Nav1.6 channel was studied at 25° C. To analyze the effects of ZL0181 on channel binding, FGF14WT and Nav1.6 C-tail were immobilized using acetate 5.5 with amine coupling kit on CM5 sensor chip, and obtaining RU 3000 and 4500 respectively. No protein was coupled to the control flow channel of the chip. ZL0181 (5-200 μM) in HBS-P+(50 μl/min) buffer ([…], 150 mM NaCl, 0.005% (v/v) P20), pH 7.4 were injected over the chip for 180 s. Next, HB S-P+ buffer without protein were passed over the chip for 180 s to monitor dissociation, and the chip surface was then regenerated with NaCl (200 mM). For each injection of ZL0181 binding to the FGF14WT or the Nav1.6, the nonspecific responses were subtracted from the responses obtained for control prior to data analysis. Maximal equilibrium responses were plotted against the concentrations of ZL0181, and the equilibrium dissociation constant (KD) was calculated from the fitted saturation binding curve. Fitted binding curves were judged to be accurate based on the distribution of the residuals (even and near zero). Graphs were plotted in GraphPad Prism 6 Software (La Jolla, Calif.).
The role of ZL0181 was further determined by surface plasmon resonance spectroscopy. […]

Nav1.2 channels = target: T2, Nav1.2 channels (Homo sapiens, UniProt Q99250); assay: Patch clamp of Na+ currents in Nav1.2 channels; type: cell-based
T2 construct: expressed in transfected cells
Protocol: (§1) The role of ZL0181 in regulating Nav1.1 and Nav1.2 channels was also investigated.
(§2) HEK-Nav1.1, […] HEK-Nav1.6 were maintained in medium composed of equal volumes of DMEM and F-12 (Invitrogen) supplemented with 0.05% glucose, 0.5 mm pyruvate, 10% fetal bovine serum, 100 units/ml penicillin, 100 μg/ml streptomycin incubated at 37° C. with 5% CO2. For selection of Nav1.1 and Nav1.2, 500 μg/ml G418 (Invitrogen) was used, and for selection of Nav1.6, 80 μg/ml G418 (Invitrogen) was used. Cells were transfected according to manufacturer's instructions at 90-100% confluency using Lipofectamine 2000 (Invitrogen). See e.g., Shavkunov, A., et al. Assay and drug development technologies 10(2):148-160 (2012).
(§3) Detailed methods for path-clamp experiments is known in the art. See e.g., Ali, S. R., et al., Journal of Biological Chemistry 291:11268 (2016).

Nav1.1 channels = target: T3, Nav1.1 channels (Homo sapiens, UniProt P35498); assay: Patch clamp of Na+ currents in Nav1.1 channels; type: cell-based
T3 construct: expressed in transfected cells
Protocol: as §1, §2, §3

[1] = test system: nucleus accumbens medium spiny neurons; assay: Ex vivo whole-cell patch clamp of neuronal firing in brain tissue slices; type: cell-based, mice
Text: It is known in the art that nucleus accumbens plays a critical role in reinforcement-associated learning and in addiction-related behavior. See e.g., Woodruff-Pak, D. S., et al., Behavioral neuroscience 120:229-240 (2006); McKinney, B. C., et al., Genes, brain, and behavior 7:629-638 (2008). It has been shown that Nav1.6 channels are expressed at the nucleus accumbens medium spiny neurons. Shah, B. S., et al., The Journal of Physiology 534(Pt 3):763-776 (2001). The effect of ZL0181 on neuronal firing along with active and passive properties was tested using whole-cell patch clamp techniques in brain tissue slices. Nucleus accumbens medium spiny neurons (MNS) were treated with either DMSO (0.05×) or ZL0181 (50 μM) for one hour in an incubation chamber before being transferred to submerge experimental chamber perfused with oxygenated artificial cerebrospinal fluid for patch clamp experiments. […] For instance, at current step of 150 pA the number of spikes in DMSO treated MSNs was 18.4±1.3, n=8 versus 6.9±2.3, n=10 in ZL0181 treated MSNs; p<0.005 with Student t-test (FIG. 4B, Chart C). To test the mechanisms underlying neuronal firing reduction and related to sodium channels activity, action potential voltage and current thresholds were measured.
Coronal nucleus accumbens slices were prepared from FGF14−/− or wild type mice either treated with ZL0181 or vehicle control. Evoked action potentials were recorded in regular ASCF solution at 30-31° C. using Axopatch 200B and 700B amplifiers (Molecular Devices, Union City, Calif.). Recordings were filtered at 2 kHz and digitized at 10-20 kHz using a Digidata 1320 analog-to-digital interface and pClamp9 acquisition software (Molecular Devices, Union City, Calif.). Patch pipettes (4-6 MΩ) were prepared from borosilicate glass using a Narishige PC-10 vertical puller (Narishige International Inc., East Meadow, N.Y.). The extracellular bath solution contained (in mM) 130 NaCl, 3.5 KCl, 10 glucose, 1.5 MgCl2, 1.4 CaCl2, 23 NaHCO3, 1.25 NaH2PO4, osmolarity 300-310, pH 7.4, and the intracellular recording solution contained (in mM) 120 CH3KO3S, 10 KCl, 10 HEPES, 10 glucose, 2 MgCl2, 0.5 EGTA, 2 MgATP, and 0.5 NaGTP, osmolarity 280-290, pH 7.3. Upon forming a whole-cell connection, artificial cerebrospinal fluid containing 10 μM bicucilline (Tocris Bioscience), 30 μM NBQX (Tocris Bioscience), and 100 μM D-APV (Tocris Bioscience) was perfused into the bath solution in order to block synaptic transmission.
After seal formation and membrane rupture, action potential trains were evoked with current step protocol injections of 10 pA increment.

T2 sequence (Q99250 whole entry): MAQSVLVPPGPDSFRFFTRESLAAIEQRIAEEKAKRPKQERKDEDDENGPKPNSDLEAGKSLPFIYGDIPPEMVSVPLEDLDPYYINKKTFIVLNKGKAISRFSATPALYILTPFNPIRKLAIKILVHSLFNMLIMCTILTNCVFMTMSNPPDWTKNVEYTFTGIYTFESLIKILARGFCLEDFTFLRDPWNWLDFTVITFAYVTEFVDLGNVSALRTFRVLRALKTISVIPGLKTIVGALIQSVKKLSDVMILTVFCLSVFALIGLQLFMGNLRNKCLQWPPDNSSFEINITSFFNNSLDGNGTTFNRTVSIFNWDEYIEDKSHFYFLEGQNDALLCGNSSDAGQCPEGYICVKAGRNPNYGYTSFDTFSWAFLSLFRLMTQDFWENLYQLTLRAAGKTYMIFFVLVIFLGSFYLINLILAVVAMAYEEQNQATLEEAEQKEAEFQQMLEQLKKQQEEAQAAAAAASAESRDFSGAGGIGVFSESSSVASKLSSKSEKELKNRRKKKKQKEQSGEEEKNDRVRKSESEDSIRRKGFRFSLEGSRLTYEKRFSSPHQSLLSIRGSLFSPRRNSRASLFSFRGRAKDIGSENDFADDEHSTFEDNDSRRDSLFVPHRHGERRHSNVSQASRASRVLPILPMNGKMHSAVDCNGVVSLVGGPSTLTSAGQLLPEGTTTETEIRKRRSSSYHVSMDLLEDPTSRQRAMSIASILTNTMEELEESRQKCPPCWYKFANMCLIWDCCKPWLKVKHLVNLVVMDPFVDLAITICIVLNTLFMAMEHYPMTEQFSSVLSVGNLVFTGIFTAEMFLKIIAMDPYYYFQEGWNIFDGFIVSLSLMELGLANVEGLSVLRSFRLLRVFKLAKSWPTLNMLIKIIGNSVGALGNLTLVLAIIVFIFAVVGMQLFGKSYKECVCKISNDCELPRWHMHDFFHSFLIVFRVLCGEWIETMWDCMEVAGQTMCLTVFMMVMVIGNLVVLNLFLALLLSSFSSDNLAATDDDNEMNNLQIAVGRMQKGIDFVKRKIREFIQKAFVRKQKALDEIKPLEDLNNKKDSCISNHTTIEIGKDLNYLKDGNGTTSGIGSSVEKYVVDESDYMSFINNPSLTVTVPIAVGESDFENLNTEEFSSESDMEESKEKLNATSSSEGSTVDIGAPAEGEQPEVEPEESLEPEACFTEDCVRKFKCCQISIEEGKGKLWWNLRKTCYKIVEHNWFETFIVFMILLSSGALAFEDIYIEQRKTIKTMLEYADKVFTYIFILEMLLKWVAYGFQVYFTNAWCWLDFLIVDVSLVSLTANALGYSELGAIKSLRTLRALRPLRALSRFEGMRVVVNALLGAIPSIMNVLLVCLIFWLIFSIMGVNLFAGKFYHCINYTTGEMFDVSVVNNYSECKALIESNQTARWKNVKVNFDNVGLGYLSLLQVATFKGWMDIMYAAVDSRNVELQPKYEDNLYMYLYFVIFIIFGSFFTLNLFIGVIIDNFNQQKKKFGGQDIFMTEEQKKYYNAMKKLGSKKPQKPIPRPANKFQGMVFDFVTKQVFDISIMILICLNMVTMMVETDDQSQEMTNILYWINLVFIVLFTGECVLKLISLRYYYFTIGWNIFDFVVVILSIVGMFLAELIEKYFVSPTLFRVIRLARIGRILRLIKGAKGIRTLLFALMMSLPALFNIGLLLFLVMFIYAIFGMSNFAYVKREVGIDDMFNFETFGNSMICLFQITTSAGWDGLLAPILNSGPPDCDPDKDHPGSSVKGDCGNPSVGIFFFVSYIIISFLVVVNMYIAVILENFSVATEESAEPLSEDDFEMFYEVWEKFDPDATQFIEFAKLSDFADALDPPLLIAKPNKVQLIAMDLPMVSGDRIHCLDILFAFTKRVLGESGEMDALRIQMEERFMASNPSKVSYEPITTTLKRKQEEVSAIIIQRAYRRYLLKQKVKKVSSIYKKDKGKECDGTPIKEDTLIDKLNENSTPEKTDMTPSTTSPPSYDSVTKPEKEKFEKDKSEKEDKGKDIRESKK
T1 sequence (Q9UQD0 1797-1980 limits assumed): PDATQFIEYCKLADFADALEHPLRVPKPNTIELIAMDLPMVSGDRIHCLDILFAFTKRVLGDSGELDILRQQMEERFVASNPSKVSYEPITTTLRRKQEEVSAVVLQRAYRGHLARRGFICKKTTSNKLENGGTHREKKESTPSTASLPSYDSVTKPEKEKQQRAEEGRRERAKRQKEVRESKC

Structure (SMILES): CC(C)C[C@H](NC(=O)[C@H](Cc1ccccc1)NC(=O)OCc1ccccc1)C(=O)N1CCC[C@H]1C(=O)N[C@@H](CCCCNC(=O)OC(C)(C)C)C(N)=O [ZL0181, Z-Phe-Leu-Pro-Lys(Boc)-NH2] (Cbz-FLPK(Boc)-NH2)
- Kd (Nav1.6 C-tail): 212 µM
- peak current amplitude in Nav1.2 channels (Nav1.2 channels): suppresses peak current amplitude
- synergy with FGF14 on Na+ current and rescue of V1/2 of inactivation, Nav1.2 (Nav1.2 channels; in presence of FGF14): does neither act synergistically to further suppress Na+ current in presence of FGF14 or rescue the voltage-dependence inactivation property
- peak current amplitude in Nav1.1 channels (Nav1.1 channels): suppresses peak current amplitude
- synergy with FGF14 on Na+ current and rescue of V1/2 of inactivation, Nav1.1 (Nav1.1 channels; in presence of FGF14): does neither act synergistically to further suppress Na+ current in presence of FGF14 or rescue the voltage-dependence inactivation property
- number of spikes ([1]; 50 μM for one hour, current step of 150 pA, n=10, DMSO 18.4±1.3): 6.9±2.3
- action potential current threshold ([1]; 50 μM for one hour, n=10, DMSO 72.5±11.5): 135.8±12.5 pA
- action potential voltage threshold ([1]; 50 μM for one hour, n=10, DMSO −35.9±2.3): −27.8±2 mV
- further neuronal active and passive properties ([1]; 50 μM, compared to DMSO control): no significant changes

— patent US10889543B2, “Fine-tune modulators of neuronal excitability for neuropsychiatric disorders” (THE BOARD OF REGENTS OF THE UNIVERSITY OF TEXAS SYSTEM, priority 2016, dated 2021)
